From patent US4946864A, “Novel HMG-CoA reductase inhibitors” (Merck & Co., Inc., priority 1988, dated 1990)

The molecules below were run against T1, HMG-CoA reductase (Rattus norvegicus, UniProt P51639) (assay: intrinsic HMG-CoA reductase inhibition, in vitro protocol of J. Med. Chem., 28, p. 347-358 (1985)). Conditions: mevastatin assigned a value of 100; IC50 of test compound compared with that of mevastatin determined simultaneously.
T1 construct: from tissue
T1 sequence (P51639 1-887): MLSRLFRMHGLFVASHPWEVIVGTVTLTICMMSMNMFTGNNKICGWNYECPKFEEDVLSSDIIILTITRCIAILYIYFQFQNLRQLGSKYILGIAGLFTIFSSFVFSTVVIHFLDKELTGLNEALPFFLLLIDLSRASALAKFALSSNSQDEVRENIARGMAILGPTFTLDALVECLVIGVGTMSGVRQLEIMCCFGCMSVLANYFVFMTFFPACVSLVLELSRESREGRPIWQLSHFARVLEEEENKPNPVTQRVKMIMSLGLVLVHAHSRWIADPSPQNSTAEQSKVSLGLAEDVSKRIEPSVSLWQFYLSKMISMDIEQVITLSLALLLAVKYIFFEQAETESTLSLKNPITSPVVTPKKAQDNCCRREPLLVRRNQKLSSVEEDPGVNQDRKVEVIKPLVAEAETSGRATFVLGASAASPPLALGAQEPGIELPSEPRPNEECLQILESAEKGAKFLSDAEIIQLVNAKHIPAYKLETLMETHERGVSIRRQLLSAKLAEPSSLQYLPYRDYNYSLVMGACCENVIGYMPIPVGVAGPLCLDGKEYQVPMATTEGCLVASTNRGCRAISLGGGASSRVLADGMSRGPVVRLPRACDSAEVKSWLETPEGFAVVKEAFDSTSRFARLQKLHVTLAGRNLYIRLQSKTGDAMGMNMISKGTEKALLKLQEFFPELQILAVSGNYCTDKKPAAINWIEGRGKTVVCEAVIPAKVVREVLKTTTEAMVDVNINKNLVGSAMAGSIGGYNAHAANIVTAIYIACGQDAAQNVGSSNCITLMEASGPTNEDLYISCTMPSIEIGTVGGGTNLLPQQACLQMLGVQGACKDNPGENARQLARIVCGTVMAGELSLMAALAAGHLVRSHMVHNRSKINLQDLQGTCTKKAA
Assay type: biochemical
Protocol: The intrinsic HMG-CoA reductase inhibition activity of the claimed compounds is measured in the in vitro protocol published in J. Med. Chem., 28, p. 347-358 (1985). […] Tabulated below for a number of the claimed compounds are relative potencies which are representative of the intrinsic HMG-CoA reductase inhibitory activities of the claimed compounds.
“6(R)-[2-[8(S)-(2-isopropylbenzoyloxy)-2(S),6(R) -dimethyl-1,2,6,7,8,8a(R)-hexahydronaphthyl-1(S)]ethyl-4(R)-hydroxy-3,4,5,6-tetrahydro-2H-pyran-2-one” was tested, and the “Relative Potency” value was 173.
With “6(R)-[2-[(8(S)-(2-chlorobenzoyloxy)-2-(S),6(R)-dimethyl-1,2,6,7,8,8a(R)-hexahydronaphthyl-1-(S)]ethyl]-4(R)-hydroxy-3,4,5,6-tetahydro-2H pyran-2-one” the “Relative Potency” value was 100.
For “6(R)-[2-[8(S)-(2-methylthiobenzoyloxy)-2(S),6(R)-dimethyl-1,2,6,7,8,8a(R)- hexahydronaphthyl-1(S)]ethyl-4(R)-hydroxy-3,4,5,6-tetrahydro-2H-pyran-2-one”, the “Relative Potency” value was 54.
`Cc1ccc(C)c(C(=O)O[C@H]2C[C@@H](C)C=C3C=C[C@H](C)[C@H](CC[C@@H]4C[C@@H](O)CC(=O)O4)[C@H]32)c1` was tested, and the “Relative Potency” value was 67.
In the case of “6(R)-[2-[8(S)-(2-methylbenzoyloxy) -2(S),6(R) -dimethyl-1,2,6,7,8,8a(R) -hexahydronaphthyl-1(S)]ethyl]-4(R)-hydroxy -3,4,5,6-tetrahydro-2H-pyran-2-one”, the “Relative Potency” value is reported as 67.
For “6(R)-[2-[8(S)-(2-trifluormethyl-benzoyloxy)-2(S),6(R)-dimethyl-1,2,6,7,8,8a(R)-hexa-hydronaphthyl-1(S)]ethyl]-4(R)-hydroxy-3,4,5,6-tetrahydro-2H-pyran-2-one”, the “Relative Potency” value was 87.
